row,Compound,melting point [°C]
1,CCC(CC)n1nnc2c([N+](=O)[O-])cccc21,129 to 132
2,CC(C)(C)c1nc(C(=O)c2ncc[nH]2)nc(C(C)(C)C)c1O,217 to 220
3,Clc1cc2c(cc1Cl)CCC(N1CCCC1)=C2,141 to 142
4,COc1cc(OCc2ccccn2)ccc1/C=C/C(=O)CC(=O)/C=C/c1c[nH]c2ccc(F)cc12,183 to 186
5,Cn1ncnc1COc1nn2c(-c3ccccc3)nnc2cc1N1CCOCC1,210 to 211
6,Cc1cc(Cc2n[nH]c(=O)c3ccccc23)cc(C)n1,229 to 230
7,Nc1nc(C(F)(F)F)nc2c1ncn2C1OC(CO)C(O)C1O (stereo unspecified),173 to 175
8,COc1ccc(-c2nc(SCC=O)sc2-c2ccc(OC)cc2)cc1,75 to 76
9,CCc1cc(-c2ccc(-c3ccnn3C)cc2)ccc1OC,97 to 100
10,Clc1ccc(Cl)c(CN2CCNc3ncc(-c4ccc(N5CCCC5)nc4)cc32)c1,> 200
11,CC(=O)NC[C@H]1CN(c2ccc3c(c2)CCC(C)N3)C(=O)O1 (stereo partly specified),158 to 159
12,COc1ccc(C(O)Cc2nccnc2C)cc1 (stereo unspecified),89 to 91
13,Cc1ccc(N(C)S(=O)(=O)c2cccs2)c2[nH]c(C3=NCC(CC(N)=O)S3)cc12 (stereo unspecified),120 to 121
14,COC(=O)C1CCC2C3CCC4CC(O)C(OC)CC4(C)C3C(=O)CC12C (stereo unspecified),170 to 182
15,COC(=O)c1cc(O)c2cc[nH]c2c1,160 to 162
16,COc1cc(-n2nc(C#N)cc2-c2ccc(S(C)(=O)=O)cc2)ccc1F,169 to 171
17,O=c1n(-c2ccccc2)nc2c3ccccc3nc(Cl)n12,167 to 168
18,ON=CCOc1ccc(Oc2ccccc2)cc1,102 to 105
19,O=C(O)c1cccc2c1CCc1ccccc1C2=O,188 to 189
20,CCOC(=O)CCc1cc2c(c(Br)c1Br)OCC2,42 to 43
21,CS(=O)(=O)c1ccc(-c2cnn(-c3ccc(F)cc3)c(=O)c2OCCC2CC2)cc1,111 to 117
22,COC(=O)[C@H](Cc1c(Br)n(C(=O)OC(C)(C)C)c2cc(Br)c(OC)c(Br)c12)NC(C)=O,126 to 128
23,CN(C)CCOC(=O)C1CCc2c([nH]c3ccc(Cl)cc23)C1 (stereo unspecified),123 to 124
24,CN(c1cc(OC(F)(F)F)cc2cc(C(=O)O)[nH]c12)S(=O)(=O)c1cccs1,245 to 246
25,Cc1c(F)c(F)cc2c(=O)c(C(=O)O)cn(-c3ccc(F)c(O)c3)c12,> 280
26,CCCC(=O)NN=C(C)C1CCC=C(C)O1 (stereo unspecified),72.8

row,Compound,melting point [°C]
1,CC1CCc2c(cc(-c3ccccc3)n2-c2ccc(O)c(C(=O)O)c2)C1 (stereo unspecified),213 to 215
2,O=C(O)C(O)=CC(=O)c1cn(Cc2ccccc2)cc(Cc2ccccc2)c1=O,140 to 142
3,COc1ccccc1-n1nc(-c2c(-c3ccccc3)nn3ccccc23)ccc1=O,163
4,CC(=O)c1ccsc1C(=O)O,155 to 156
5,CCOCc1nc2c(N)nc3cc(-c4ccccc4)ccc3c2n1CC(C)(C)NC(=O)NC1CCCCC1,152 to 156
6,NC1=NC(c2ccc(OC(F)(F)F)cc2)(c2cccc(-c3cccnc3F)c2)C2=NCCCCN12 (stereo unspecified),88 to 97
7,O=C(Nc1cc(C2CC2)n[nH]1)c1ccc[nH]1,207 to 209
8,COc1ccc2cc3c(N)nn(CCN4CCOCC4)c3nc2c1,166 to 168
9,COc1cc2c(cc1Nc1ncc(Cl)c(N[C@H]3[C@@H](C(N)=O)[C@@H]4C=C[C@H]3C4)n1)NC(=O)CN(CC1CC1)C2,152
10,Cc1nsc(OCC(F)(F)F)c1S(=O)(=O)NC(C)(C)C,87 to 90
11,CC(C)(C)CNC(=NC#N)Nc1cccnc1,214 to 215
12,Fc1cccc(F)c1Cn1c(-c2c(F)cccc2F)nc2ccccc21,145
13,Cc1ccc(C2c3[nH]c4ccccc4c3CCN2C(=O)C=Cc2cc([N+](=O)[O-])ccc2Cl)cc1 (stereo unspecified),211 to 213
14,O=C(O)/C=C1/c2ccccc2N(C(=O)c2ccc(NC(=O)c3ccccc3-c3ccccc3)cc2)CCC1(F)F,224 to 226
15,CCCNC(=O)c1ccc2c(c1)C(=O)NC(C(Cl)(Cl)Cl)O2 (stereo unspecified),228 to 230
16,N#Cc1ccc(Nc2nc(NCc3ccco3)nc(Nc3ccc(O)cc3)n2)cc1,62 to 65
17,O=C(O)CCc1ccc(OCCCc2cc(-c3ccc(C(F)(F)F)cc3)no2)cc1,174 to 175
18,COc1ccc2c(=O)n3cccc3oc2c1,128 to 129
19,COc1cccc(C2=Nc3ccc(N4CCOCC4)cc3C(=O)C2)c1OC,235 to 236
20,O=C(NCc1ccccc1)c1ccccc1-c1ccccc1CNS(=O)(=O)c1cccc(C(F)(F)F)c1,126
21,Cn1c(CNCC(C)(C)O)cc2cc(NC(=O)c3ccc(OCC4CCOC4)cc3)ccc21 (stereo unspecified),169
22,Cc1cccc2cc3c(=O)n(Cc4ccccn4)cc(C(=O)NCCN(C)C)c3nc12,183 to 184
23,O=c1[nH]c2cc(Cl)ccc2c(O)c1-c1cccc(I)c1,> 350
24,COc1c(C)c2c(c(O)c1CC1=C(C)CC(C(=O)O)C1)C(=O)OC2 (stereo unspecified),208 to 211
25,CC(=O)OC1COC(Oc2ccc(C(=S)c3ccc(C)cc3)cc2)C(OC(C)=O)C1OC(C)=O (stereo unspecified),132
26,CC1CCCN1CCCN1CCN(CCCN2CCCC2C)C1=C(C#N)C#N (stereo unspecified),89 to 93

row,Compound,melting point [°C]
1,O=C(CC1(S(=O)c2ccc(Oc3ccc(F)cc3)cc2)CCOCC1)NO (stereo unspecified),120
2,CN(C)CCCCCCc1nn(CC(N)=O)c(-c2ccccc2)c1-c1ccccc1,60 to 63
3,CCCCCC1CCC(c2ccc3c(c2F)C(F)(F)Oc2c-3ccc(OCCCC)c2F)CC1 (stereo unspecified),99
4,CSC(=C[N+](=O)[O-])N1CCCCC1,65 to 67
5,O=C(O)Cc1ccc2noc(-c3ccccc3)c2c1,173 to 174
6,Cc1ccc(NC(=S)NCc2ccc3c(c2)CN(C2CCC(=O)NC2=O)C3=O)cc1Cl (stereo unspecified),240 to 242
7,CCNC(=O)c1ccc(N2CCN(Cc3cc4c(c(OC(F)F)c3)OC(C)C(=O)N4)CC2)c(Cl)c1 (stereo unspecified),102 to 104
8,O=c1[nH]c2cc(Cl)ccc2c(O)c1-c1ccc([N+](=O)[O-])cc1,> 350
9,O=S(=O)(Br)c1cccs1,49 to 51
10,Nc1cc(N2C(=O)COc3ccccc32)ccn1,189 to 190
11,COc1ccccc1CN[C@@H]1[C@@H]2CCN([C@H](CCc3ccccc3)C2)[C@@H]1C(c1ccccc1)c1ccccc1 (relative stereo),107 to 108
12,CCCCCCCCOc1ccc2cc(C(=O)O)ccc2c1,150 to 153
13,O=C(CC(O)C(=O)O)c1ccc(C(F)(F)F)cc1 (stereo unspecified),118 to 120
14,O=C(CCl)Nc1ccc(OCc2nc3ccccc3s2)cc1,196 to 197
15,O=c1cc(CCCCBr)c2ccccc2[nH]1,156 to 158
16,Oc1ccc(-c2nc(Cn3ccnn3)cs2)cc1,164 to 166
17,CCOCc1nc2c(N)nc3cc(OCCOCc4ccccc4)ccc3c2n1CC(C)(C)O,131 to 132
18,ONC(=S)C=Cc1cccc2ccccc12,129 to 130
19,CCCCCS(=O)(=O)NC(=O)CCc1ccc(OC(C)C)cc1OCc1ccc(Cl)cc1Cl,120
20,CC(C)(C)c1ccc(C(=O)c2c(N)sc3c2CCN(Cc2ccccc2)C3)cc1,124 to 125
21,COc1cccc(-c2nc(N)ncc2-c2ccc(=O)n(C(C)C)n2)c1,211
22,c1ccc2c(c1)OCCc1c-2n(Cc2ccc(OCCCN3CCCCC3)cc2)c2ccccc12,129 to 130
23,CCOC(=O)c1nnc(N2N=C(c3ccc([N+](=O)[O-])c(C)c3)c3cc4c(cc3C[C@H]2C)OCO4)s1,115 to 118
24,COC(=O)c1cc(OC(C)=O)c2cc(Br)ccc2c1C,78
25,CS(=O)(=O)c1ccc(-c2cc(=O)[nH]c(C(F)(F)F)c2-c2ccc(F)cc2)cc1,232 to 242
26,CC(=O)Nc1ccc2c(c1)cc(C(=O)O)n2Cc1ccc(Cl)c(Cl)c1,245 to 246

row,Compound,melting point [°C]
1,N#Cc1ccc(C[C@]23C[C@@H](O)CN2C(=O)N(c2cc(Cl)nc(Cl)c2)C3=O)cc1,97.6
2,CC(=O)OCc1nccc2[nH]c(=O)ccc12,162 to 165
3,Cc1ccc(-c2c(Cl)nc3ncnn3c2NC(C)C)c(F)c1,121
4,O=C1OCCC1=Cc1ccccc1OCC1CO1 (stereo unspecified),68 to 70
5,CC(=O)OCC1OC(SC(c2ccccc2)(c2ccccc2)c2ccccc2)C(OC(C)=O)C(OC(C)=O)C1OC(C)=O (stereo unspecified),178 to 180
6,CCCCNc1cc(C(=O)O)cc(S(=O)(=O)NCCCC)c1Sc1ccc(N)cc1,198 to 200
7,O=C(C=Cc1cccc(NS(=O)(=O)/C=C/c2ccccc2)c1)NO,171
8,N[C@H]1CC[C@@H](N2CCNC2=O)CC1,121 to 123
9,CN(C)Cc1ccc(CSCCNc2nc(N)n[nH]2)o1,76 to 78.5
10,CCC(=O)Nc1nc(-c2ccc(OC(F)F)cc2)cs1,186 to 188
11,CC(C)(C)C1=CC(=Cc2ccc(C#N)cc2)C=C(C(C)(C)C)C1=O,147 to 148
12,ON=C1c2ccccc2CCC1c1ccccc1 (stereo unspecified),156 to 157
13,Nc1nc(-c2ccco2)nc2ccccc12,219 to 221
14,CN(C)C(=O)C(c1ccccc1)(c1ccccc1)C1CCNC1 (stereo unspecified),159 to 160
15,C=Cc1cc(C)nc2c(OCc3ccccc3)cccc12,114
16,OC1(c2cccn2Cc2ccccc2F)CCN(CCCc2noc3cc(F)ccc23)CC1,100 to 104
17,N#CCc1cnc(N)cn1,132 to 134
18,CC(C)n1nc(-c2sc(C(=O)N3CCCCC3)nc2-c2ccccc2)ccc1=O,111 to 112
19,COc1ccc(C(=O)c2cccn2C)cc1,66 to 68
20,CCOC(=O)C1=C(COCCNC(=O)N2CCNC2=O)NC(C)=C(C(=O)OC)C1c1ccccc1Cl (stereo unspecified),145
21,CNC(=O)C[C@@H]1N=C(c2ccc(Cl)cc2)c2c(sc(C)c2C)-n2c(C)nnc21,143 to 145
22,COc1ccc(-n2nc(OC(C)C)cc2-c2ccc(OCCNC(N)=O)cc2)cc1,139 to 140
23,COc1ccc(C(C)(O)Cn2cc[nH]c2=O)cc1OC1CCCC1 (stereo unspecified),136
